According to ChEMBL document CHEMBL5291721, “A preclinical secondary pharmacology resource illuminates target-adverse drug reaction associations of marketed drugs” (Nat Commun, 2023):

Key:
[1] = molecular target: Beta-1 adrenergic receptor (Homo sapiens, UniProt P08588); assay type: functional
Mu-type opioid receptor = Mu-type opioid receptor (Homo sapiens, UniProt P35372); test: biochemical; assay type: functional
[2] = molecular target: T1, Amine oxidase [flavin-containing] A (Homo sapiens, UniProt P21397); assay type: functional
T1 sequence (P21397 whole entry): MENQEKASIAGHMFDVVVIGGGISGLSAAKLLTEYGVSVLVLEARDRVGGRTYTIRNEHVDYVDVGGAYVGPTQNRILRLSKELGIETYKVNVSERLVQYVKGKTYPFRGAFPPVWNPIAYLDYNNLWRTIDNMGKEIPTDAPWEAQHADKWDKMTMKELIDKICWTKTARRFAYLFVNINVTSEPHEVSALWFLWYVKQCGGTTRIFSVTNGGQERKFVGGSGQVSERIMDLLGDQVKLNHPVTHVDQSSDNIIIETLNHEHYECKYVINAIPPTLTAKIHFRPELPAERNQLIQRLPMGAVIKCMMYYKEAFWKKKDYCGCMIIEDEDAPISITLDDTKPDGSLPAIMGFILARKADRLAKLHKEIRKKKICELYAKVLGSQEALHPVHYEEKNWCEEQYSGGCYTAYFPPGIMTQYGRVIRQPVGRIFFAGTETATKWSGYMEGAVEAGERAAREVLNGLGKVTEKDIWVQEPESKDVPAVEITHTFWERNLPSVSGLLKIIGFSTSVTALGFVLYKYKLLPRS

[3] = molecular target: T2, Alpha-2C adrenergic receptor (Homo sapiens, UniProt P18825); assay type: functional
T2 sequence (P18825 whole entry): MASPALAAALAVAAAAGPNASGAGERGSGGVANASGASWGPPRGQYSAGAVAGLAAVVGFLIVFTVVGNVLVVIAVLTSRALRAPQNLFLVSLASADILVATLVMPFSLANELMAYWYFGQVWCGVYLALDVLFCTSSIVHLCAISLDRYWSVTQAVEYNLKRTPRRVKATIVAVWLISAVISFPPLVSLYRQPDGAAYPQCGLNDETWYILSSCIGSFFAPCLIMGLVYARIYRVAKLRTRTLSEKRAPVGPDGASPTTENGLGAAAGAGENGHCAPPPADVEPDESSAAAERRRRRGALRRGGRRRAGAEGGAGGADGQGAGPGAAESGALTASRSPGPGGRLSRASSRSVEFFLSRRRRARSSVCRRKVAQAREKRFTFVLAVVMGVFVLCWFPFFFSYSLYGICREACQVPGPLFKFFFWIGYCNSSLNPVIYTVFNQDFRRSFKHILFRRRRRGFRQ

Histamine H3 receptor = Histamine H3 receptor (Homo sapiens, UniProt Q9Y5N1)
Androgen receptor [4] = molecular target: T3, Androgen receptor (Rattus norvegicus, UniProt P15207); assay type: functional
T3 sequence (P15207 whole entry): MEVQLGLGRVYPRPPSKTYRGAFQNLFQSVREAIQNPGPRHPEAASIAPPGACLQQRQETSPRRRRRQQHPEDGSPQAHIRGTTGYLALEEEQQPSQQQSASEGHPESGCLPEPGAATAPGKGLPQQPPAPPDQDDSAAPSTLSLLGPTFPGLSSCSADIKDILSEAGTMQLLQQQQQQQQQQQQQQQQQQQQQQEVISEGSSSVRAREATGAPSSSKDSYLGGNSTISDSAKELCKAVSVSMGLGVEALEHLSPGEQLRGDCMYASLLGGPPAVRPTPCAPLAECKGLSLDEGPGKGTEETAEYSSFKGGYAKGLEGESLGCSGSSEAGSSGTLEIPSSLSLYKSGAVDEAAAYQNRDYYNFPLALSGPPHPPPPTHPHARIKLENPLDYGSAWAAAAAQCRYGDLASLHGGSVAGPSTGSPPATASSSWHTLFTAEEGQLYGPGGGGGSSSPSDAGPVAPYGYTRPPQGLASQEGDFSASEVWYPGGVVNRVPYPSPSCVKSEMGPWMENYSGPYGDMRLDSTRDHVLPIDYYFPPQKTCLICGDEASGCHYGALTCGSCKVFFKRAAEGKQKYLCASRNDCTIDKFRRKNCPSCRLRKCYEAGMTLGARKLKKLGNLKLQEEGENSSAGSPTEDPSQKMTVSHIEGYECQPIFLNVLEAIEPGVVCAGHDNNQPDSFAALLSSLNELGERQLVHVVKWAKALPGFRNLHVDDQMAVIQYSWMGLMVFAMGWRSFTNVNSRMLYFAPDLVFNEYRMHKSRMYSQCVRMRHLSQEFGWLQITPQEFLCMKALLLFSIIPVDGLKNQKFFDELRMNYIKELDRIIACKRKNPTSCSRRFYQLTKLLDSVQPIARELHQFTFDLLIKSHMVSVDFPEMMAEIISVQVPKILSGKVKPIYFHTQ

Histamine H1 receptor = Histamine H1 receptor (Homo sapiens, UniProt P35367)
Androgen receptor [5] = molecular target: T3, Androgen receptor; assay type: functional; remark: listed apart in the source
[6] = molecular target: Beta-2 adrenergic receptor (Homo sapiens, UniProt P07550)
Histamine H2 receptor = Histamine H2 receptor (Homo sapiens, UniProt P25021); assay type: functional, cell-based
Cannabinoid receptor 1 [7] = molecular target: T4, Cannabinoid receptor 1 (Homo sapiens, UniProt P21554); assay type: functional, cell-based
[8] = molecular target: T5, Alpha-1A adrenergic receptor (Homo sapiens, UniProt P35348); assay type: functional, cell-based
T5 sequence (P35348 whole entry): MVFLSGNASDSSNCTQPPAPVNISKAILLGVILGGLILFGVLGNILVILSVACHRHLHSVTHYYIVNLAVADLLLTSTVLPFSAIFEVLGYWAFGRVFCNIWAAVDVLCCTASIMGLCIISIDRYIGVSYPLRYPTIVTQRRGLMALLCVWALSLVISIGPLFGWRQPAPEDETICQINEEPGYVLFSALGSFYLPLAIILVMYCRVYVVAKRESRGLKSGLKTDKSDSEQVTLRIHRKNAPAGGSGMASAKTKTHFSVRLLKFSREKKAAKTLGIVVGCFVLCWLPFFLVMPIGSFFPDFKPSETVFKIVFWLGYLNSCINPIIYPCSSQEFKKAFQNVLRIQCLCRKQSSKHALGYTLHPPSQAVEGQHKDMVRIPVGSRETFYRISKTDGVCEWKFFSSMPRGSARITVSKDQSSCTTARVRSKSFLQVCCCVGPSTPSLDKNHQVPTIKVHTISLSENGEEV

[9] = molecular target: T6, Alpha-2A adrenergic receptor (Homo sapiens, UniProt P08913); assay type: functional, cell-based
T6 sequence (P08913 whole entry): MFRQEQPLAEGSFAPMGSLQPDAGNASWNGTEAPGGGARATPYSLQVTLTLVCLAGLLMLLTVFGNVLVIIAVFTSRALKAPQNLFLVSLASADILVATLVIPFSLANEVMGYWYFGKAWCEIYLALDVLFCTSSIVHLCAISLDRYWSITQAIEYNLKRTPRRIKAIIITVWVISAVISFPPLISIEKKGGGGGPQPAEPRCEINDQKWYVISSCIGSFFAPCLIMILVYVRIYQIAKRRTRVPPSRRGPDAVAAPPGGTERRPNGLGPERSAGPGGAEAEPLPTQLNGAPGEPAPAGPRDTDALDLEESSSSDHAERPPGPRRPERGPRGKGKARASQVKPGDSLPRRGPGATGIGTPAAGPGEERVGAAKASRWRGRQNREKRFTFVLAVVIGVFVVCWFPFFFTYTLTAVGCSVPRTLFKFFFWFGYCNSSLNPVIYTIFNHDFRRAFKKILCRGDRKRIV

Cannabinoid receptor 1 [10] = molecular target: T4, Cannabinoid receptor 1; assay type: functional, cell-based; remark: listed apart in the source
[11] = molecular target: Glutamate receptor ionotropic, NMDA 1 (Rattus norvegicus, UniProt P35439)
[12] = molecular target: Voltage-dependent L-type calcium channel subunit alpha-1C (Rattus norvegicus, UniProt P22002); assay type: functional
Cannabinoid receptor 1 [13] = molecular target: T4, Cannabinoid receptor 1; assay type: functional
Acetylcholinesterase = Acetylcholinesterase (Homo sapiens, UniProt P22303); assay type: functional
[14] = molecular target: Gamma-aminobutyric acid receptor subunit alpha-1/alpha-2/beta-2/gamma-2 (Homo sapiens, UniProt P14867+P18507+P47869+P47870); assay type: protein-complex assay
[15] = molecular target: Sodium channel protein type 5 subunit alpha (Homo sapiens, UniProt Q14524); assay type: functional, cell-based
Further: assay procedure not described here.

T4 sequence (P21554 whole entry): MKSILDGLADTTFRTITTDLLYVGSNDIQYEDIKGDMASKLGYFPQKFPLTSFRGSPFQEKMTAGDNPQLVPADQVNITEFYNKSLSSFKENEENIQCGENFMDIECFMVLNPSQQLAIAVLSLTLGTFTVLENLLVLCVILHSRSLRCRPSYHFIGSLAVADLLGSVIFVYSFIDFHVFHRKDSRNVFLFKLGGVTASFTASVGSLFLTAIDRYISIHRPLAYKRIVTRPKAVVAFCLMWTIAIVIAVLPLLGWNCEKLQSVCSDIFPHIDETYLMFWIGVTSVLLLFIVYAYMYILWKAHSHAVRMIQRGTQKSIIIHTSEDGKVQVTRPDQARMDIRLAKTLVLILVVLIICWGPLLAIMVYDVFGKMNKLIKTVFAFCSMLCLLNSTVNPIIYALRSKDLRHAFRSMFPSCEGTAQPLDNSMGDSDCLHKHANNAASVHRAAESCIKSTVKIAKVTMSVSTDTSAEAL
Histamine H1 receptor, sequence (P35367 whole entry): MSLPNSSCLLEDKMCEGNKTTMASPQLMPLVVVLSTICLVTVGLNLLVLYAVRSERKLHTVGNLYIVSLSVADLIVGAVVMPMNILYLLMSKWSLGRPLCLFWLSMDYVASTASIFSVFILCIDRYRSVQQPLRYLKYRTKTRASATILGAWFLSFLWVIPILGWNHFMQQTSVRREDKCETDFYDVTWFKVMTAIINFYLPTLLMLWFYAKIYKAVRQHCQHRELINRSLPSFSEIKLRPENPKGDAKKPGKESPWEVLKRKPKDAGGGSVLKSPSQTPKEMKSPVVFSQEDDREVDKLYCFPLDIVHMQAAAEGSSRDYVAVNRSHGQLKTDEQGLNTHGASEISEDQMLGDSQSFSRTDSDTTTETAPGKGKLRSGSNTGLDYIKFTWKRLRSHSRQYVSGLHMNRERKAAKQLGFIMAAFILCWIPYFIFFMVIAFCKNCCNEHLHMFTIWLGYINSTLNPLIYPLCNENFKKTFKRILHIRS
Histamine H2 receptor, sequence (P25021 whole entry): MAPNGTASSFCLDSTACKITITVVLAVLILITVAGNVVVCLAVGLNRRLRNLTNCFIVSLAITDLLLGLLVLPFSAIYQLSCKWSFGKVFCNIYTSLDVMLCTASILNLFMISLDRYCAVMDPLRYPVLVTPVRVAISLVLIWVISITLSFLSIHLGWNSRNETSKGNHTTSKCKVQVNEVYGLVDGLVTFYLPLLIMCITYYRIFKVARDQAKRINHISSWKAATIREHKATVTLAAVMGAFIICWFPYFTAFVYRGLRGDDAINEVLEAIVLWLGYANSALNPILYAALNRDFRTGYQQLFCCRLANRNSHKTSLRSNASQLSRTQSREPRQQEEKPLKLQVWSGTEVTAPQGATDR
Mu-type opioid receptor, sequence (P35372 whole entry): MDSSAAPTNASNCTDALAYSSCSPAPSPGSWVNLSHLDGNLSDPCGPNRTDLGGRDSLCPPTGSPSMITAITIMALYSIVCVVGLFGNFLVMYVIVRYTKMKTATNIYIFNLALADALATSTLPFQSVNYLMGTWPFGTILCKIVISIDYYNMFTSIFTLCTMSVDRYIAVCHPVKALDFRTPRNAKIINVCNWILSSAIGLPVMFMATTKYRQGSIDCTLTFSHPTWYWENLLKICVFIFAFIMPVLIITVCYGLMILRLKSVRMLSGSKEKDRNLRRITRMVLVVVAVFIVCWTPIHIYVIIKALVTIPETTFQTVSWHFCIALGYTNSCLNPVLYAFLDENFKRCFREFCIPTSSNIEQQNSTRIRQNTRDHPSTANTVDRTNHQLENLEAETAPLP
Histamine H3 receptor, sequence (Q9Y5N1 whole entry): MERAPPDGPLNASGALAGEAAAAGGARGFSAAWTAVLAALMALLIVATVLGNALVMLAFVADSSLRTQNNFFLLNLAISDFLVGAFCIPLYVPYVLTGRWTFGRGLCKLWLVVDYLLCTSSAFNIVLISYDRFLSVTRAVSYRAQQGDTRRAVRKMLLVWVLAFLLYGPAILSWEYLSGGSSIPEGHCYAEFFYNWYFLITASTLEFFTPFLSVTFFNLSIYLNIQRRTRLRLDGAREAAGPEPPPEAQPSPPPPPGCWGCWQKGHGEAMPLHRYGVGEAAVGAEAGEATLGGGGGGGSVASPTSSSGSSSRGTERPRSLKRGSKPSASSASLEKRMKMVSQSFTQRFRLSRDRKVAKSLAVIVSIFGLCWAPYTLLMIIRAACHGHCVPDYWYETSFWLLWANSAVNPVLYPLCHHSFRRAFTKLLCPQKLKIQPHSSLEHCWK
Beta-2 adrenergic receptor, sequence (P07550 whole entry): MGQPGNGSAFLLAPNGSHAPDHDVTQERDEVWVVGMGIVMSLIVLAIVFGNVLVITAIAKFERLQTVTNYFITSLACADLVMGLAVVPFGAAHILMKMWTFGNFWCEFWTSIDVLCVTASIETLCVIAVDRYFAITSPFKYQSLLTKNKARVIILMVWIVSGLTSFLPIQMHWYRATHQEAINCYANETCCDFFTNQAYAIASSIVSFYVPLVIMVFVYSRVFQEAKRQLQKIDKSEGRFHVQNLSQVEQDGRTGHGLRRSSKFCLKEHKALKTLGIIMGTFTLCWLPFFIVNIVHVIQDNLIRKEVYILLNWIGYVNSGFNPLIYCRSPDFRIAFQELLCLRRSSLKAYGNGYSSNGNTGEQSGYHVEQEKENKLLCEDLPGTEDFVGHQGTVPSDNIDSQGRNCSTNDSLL
Sodium channel protein type 5 subunit alpha, sequence (Q14524 whole entry): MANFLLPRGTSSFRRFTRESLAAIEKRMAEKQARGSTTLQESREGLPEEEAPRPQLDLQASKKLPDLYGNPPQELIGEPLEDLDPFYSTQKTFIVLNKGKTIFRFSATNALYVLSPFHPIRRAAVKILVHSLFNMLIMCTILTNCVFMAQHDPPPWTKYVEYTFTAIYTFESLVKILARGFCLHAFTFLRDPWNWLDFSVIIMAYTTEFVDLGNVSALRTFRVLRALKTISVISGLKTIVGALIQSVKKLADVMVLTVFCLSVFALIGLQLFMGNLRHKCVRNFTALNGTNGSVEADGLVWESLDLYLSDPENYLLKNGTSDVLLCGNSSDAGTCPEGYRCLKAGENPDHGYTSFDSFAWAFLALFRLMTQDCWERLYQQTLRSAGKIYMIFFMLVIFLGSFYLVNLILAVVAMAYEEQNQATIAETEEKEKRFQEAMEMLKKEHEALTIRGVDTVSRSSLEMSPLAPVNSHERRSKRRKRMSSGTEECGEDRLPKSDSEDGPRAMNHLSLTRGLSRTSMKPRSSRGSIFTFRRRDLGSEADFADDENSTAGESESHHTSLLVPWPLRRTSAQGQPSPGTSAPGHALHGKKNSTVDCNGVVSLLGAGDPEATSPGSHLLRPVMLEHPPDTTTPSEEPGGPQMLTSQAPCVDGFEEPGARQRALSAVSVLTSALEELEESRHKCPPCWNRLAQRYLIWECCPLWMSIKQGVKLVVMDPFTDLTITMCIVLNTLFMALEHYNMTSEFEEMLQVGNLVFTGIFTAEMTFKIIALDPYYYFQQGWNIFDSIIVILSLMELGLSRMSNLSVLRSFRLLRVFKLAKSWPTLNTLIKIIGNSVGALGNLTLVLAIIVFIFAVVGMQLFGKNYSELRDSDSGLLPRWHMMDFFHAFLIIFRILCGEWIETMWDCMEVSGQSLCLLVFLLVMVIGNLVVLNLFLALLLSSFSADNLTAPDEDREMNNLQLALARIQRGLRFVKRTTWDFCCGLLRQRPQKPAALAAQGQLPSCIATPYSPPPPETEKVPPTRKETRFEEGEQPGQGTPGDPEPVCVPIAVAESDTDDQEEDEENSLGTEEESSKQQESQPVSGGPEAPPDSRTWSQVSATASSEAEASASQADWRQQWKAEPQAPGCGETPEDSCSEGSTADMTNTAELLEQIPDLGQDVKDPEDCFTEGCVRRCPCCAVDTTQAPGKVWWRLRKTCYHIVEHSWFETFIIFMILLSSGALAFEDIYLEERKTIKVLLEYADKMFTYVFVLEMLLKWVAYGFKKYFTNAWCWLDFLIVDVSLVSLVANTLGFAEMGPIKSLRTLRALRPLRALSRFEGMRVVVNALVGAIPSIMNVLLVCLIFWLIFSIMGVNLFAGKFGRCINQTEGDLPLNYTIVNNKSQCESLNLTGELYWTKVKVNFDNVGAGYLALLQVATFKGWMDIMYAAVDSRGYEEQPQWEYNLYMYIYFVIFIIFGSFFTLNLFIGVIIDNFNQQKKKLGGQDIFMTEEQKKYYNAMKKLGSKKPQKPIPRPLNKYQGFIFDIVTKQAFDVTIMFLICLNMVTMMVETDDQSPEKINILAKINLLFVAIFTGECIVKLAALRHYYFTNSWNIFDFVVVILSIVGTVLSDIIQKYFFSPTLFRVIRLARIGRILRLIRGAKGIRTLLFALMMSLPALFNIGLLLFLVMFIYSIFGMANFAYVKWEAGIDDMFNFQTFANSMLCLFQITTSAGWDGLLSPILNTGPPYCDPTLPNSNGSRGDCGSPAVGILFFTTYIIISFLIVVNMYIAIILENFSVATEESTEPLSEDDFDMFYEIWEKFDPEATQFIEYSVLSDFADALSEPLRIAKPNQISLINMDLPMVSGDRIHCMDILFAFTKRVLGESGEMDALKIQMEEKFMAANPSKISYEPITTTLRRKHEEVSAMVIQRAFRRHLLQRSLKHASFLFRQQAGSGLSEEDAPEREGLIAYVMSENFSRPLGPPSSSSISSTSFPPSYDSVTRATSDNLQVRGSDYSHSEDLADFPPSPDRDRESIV

Row | AC50 [1] [µM] | AC50 (Mu-type opioid receptor) [µM] | AC50 [2] [µM] | AC50 [3] [µM] | AC50 (Histamine H3 receptor) [µM] | AC50 (Androgen receptor [4]) [µM] | AC50 (Histamine H1 receptor) [µM] | AC50 (Androgen receptor [5]) [µM] | AC50 [6] [µM] | AC50 (Histamine H2 receptor) [µM] | AC50 [8] [µM] | AC50 [9] [µM] | AC50 [11] [µM] | AC50 [12] [µM] | Structure (SMILES) | AC50 (Cannabinoid receptor 1 [7]) [µM] | AC50 (Cannabinoid receptor 1 [10]) [µM] | AC50 (Cannabinoid receptor 1 [13]) [µM] | AC50 (Acetylcholinesterase) [µM] | AC50 [14] [µM] | AC50 [15] [µM]
1 | > 30 | > 30 | > 30 | > 30 | > 30 | 9.4 | > 30 | > 30 | > 30 | > 30 | > 30 | > 30 | > 30 | > 30 | CCC(=O)OCC(=O)[C@@]1(OC(=O)CC)[C@H](C)C[C@H]2[C@H]3[C@H]([C@@H](O)C[C@@]21C)[C@@]1(C)C=CC(=O)C=C1C[C@H]3Cl [ALCLOMETASONE DIPROPIONATE] | 0.58 | > 30 |  |  |  | 
2 |  |  |  |  |  |  |  |  |  |  |  |  |  |  | OCCOCCN1CCN(C2=Nc3ccccc3Sc3ccccc32)CC1 [QUETIAPINE] | > 30 | > 30 | > 10 | > 30 | > 30 | 
3 |  |  |  |  |  |  |  |  |  |  |  |  |  |  | N#C[C@@H]1C[C@@H]2C[C@@H]2N1C(=O)[C@@H](N)C12CC3CC(CC(O)(C3)C1)C2 [SAXAGLIPTIN ANHYDROUS] |  |  |  |  |  | > 15
